# Measurements as given in paper PMC9316543, “Characterization, Expression Profiling, and Biochemical Analyses of the Cinnamoyl-CoA Reductase Gene Family for Lignin Synthesis in Alfalfa Plants” (International Journal of Molecular Sciences, 2022).
# Where two headings read alike, the source gives them in different places.
# Experiments:
# MsCCR1 = tested on: T1, MsCCR1; experiment: NADPH oxidation, decrease of A366; format: biochemical, Medicago sativa; conditions: NADPH 160 μM, 1x PBS, substrate 30-150 μM
# T1 construct: gene CCR1; His-tagged, pET-28a, E. coli BL21, Ni-NTA; tag removal not mentioned
# Description: NADPH oxidation, decrease of A366 on MsCCR1
# MsCCR-like1 = tested on: T2, MsCCR-like1; experiment: NADPH oxidation, decrease of A366; format: biochemical, Medicago sativa; conditions: NADPH 160 μM, 1x PBS, substrate 30-150 μM
# T2 construct: His-tagged, pET-28a, E. coli BL21, Ni-NTA; tag removal not mentioned
# Description: NADPH oxidation, decrease of A366 on MsCCR-like1
# [1] = read-out: p-Coumaroyl-CoA / K m
smiles,measurement,setting,value
COc1cc(/C=C/C(=O)SCCNC(=O)CCNC(=O)[C@H](O)C(C)(C)COP(=O)(O)OP(=O)(O)OC[C@H]2O[C@@H](n3cnc4c(N)ncnc43)[C@H](O)[C@@H]2OP(=O)(O)O)cc(OC)c1O [Sinapoyl-CoA],Km,MsCCR1; read-out: Sinapoyl-CoA / K m,10.6 ± 1.25 µM
CC(C)(COP(=O)(O)OP(=O)(O)OC[C@H]1O[C@@H](n2cnc3c(N)ncnc32)[C@H](O)[C@@H]1OP(=O)(O)O)[C@@H](O)C(=O)NCCC(=O)NCCSC(=O)/C=C/c1ccc(O)c(O)c1 [Caffeoyl-CoA],Km,MsCCR-like1; read-out: Caffeoyl-CoA / K m,48.2 ± 1.75 µM
COc1cc(/C=C/C(=O)SCCNC(=O)CCNC(=O)[C@H](O)C(C)(C)COP(=O)(O)OP(=O)(O)OC[C@H]2O[C@@H](n3cnc4c(N)ncnc43)[C@H](O)[C@@H]2OP(=O)(O)O)ccc1O [Feruloyl-CoA],Km,MsCCR1; read-out: Feruloyl-CoA / K m,45.2 ± 11.4 µM
CC(C)(COP(=O)(O)OP(=O)(O)OC[C@H]1O[C@@H](n2cnc3c(N)ncnc32)[C@H](O)[C@@H]1OP(=O)(O)O)[C@@H](O)C(=O)NCCC(=O)NCCSC(=O)/C=C/c1ccc(O)cc1 [p-Coumaroyl-CoA],Km,MsCCR-like1; [1],44.1 ± 7.12 µM
same,Km,MsCCR1; [1],24.2 ± 4.51 µM
